{
  "source": "patent US11192866B2",
  "about": "“Synthesis of tetracyclines and analogues thereof” (President and Fellows of Harvard College, priority 2004, dated 2021)",
  "test_system": "Gram-positive strains",
  "test": "Whole-cell antibacterial MIC assay (NCCLS serial dilution), Gram-positive strains",
  "type": "cell-based",
  "details": "each of the Gram-positive strains examined, including strains with resistance to tetracycline, methicillin, and vancomycin",
  "description": "The efficiencies of the synthetic sequences have allowed for the preparation of sufficient quantities of each tetracycline analog for antibacterial testing using standard serial-dilution techniques (5-20 mg amounts). Minimum inhibitory concentrations (MICs) are reported for each analog in whole-cell antimicrobial assays using five Gram-positive and five Gram-negative organisms (FIGS. 18A to 18C).\nWhole-cell antibacterial activity was determined according to methods recommended by the NCCLS (National Committee for Clinical Laboratory Standards. 2002. Methods for dilution antimicrobial susceptibility tests for bacteria that grow aerobically: approved standard-fifth edition. NCCLS document M100-S12. National Committee for Clinical Laboratory Standards. Wayne, Pa.; incorporated herein by reference). Test compounds were dissolved in dimethyl sulfoxide (DMSO) and the resulting solutions were diluted in water (1:10) to produce stock solutions with a final concentration of 256 μg tetracycline analog per mL. In a 96-well microtiter plate, 50-μL aliquots of stock solutions were diluted serially into cation-adjusted Mueller-Hinton broth (MHB; Becton-Dickinson, Cockeysville, Md.). Test organisms (50 μL aliquots of solutions […]) were then added to the appropriate wells of the microtiter plate. […] The MIC was the lowest concentration of compound determined to inhibit visible growth. […]",
  "data": [
    {"smiles": "CN(C)[C@@H]1C(O)=C(C(N)=O)C(=O)[C@@]2(O)C(O)=C3C(=O)c4c(cc5ccccc5c4O)C[C@H]3C[C@@H]12", "note": "[pentacycline derivative 6]", "values": [
      {"measurement": "antibacterial activity compared with tetracycline", "result": "activity equal to or greater than tetracycline"}
    ]}
  ]
}
